# Measured values from patent US8759342B2, “Benzo[1,4]oxazin-3-one, benzo[1,4]thiazin-3-one and quinolin-2-one urotensin II receptor antagonists” (Janssen Pharmaceutica NV, priority 2006, dated 2014).
# Target: T1, rat GPR14 (U-II receptor) (Rattus norvegicus, UniProt P49684)
# T1 construct: expressed in transfected cells
# T1 sequence (P49684 1-386): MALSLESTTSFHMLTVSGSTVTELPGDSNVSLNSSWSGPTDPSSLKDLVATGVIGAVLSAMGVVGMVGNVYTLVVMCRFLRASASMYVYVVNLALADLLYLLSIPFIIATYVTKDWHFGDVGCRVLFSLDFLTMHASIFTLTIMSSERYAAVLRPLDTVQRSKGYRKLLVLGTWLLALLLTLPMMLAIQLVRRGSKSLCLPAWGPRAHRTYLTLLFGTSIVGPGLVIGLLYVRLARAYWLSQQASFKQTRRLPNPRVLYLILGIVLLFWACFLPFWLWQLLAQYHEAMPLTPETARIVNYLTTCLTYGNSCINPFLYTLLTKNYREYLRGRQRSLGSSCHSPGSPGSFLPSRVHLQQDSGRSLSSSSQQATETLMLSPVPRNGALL
# Test: Calcium flux assay (FLIPR)
# Format: cell-based
# Conditions: Inhibition of acetyl-cyclic[Cys-Phe-Trp-Lys-(2-Nal)-Cys]-NH2 (1 nM) induced Ca2+ mobilization (FLIPR) in CHO cells transfected with rat UII receptor; 5 min incubation
# Excerpt: To derive these cells, the complete coding sequence of rat […] was amplified by nested PCR from rat heart marathon-Ready cDNA. […] The PCR products were cloned into pcDNA3 (Invitrogen) digested with EcoR I and Xba I. Clones containing rat U-II receptor were verified by complete sequencing of the U-II receptor insert to ensure a lack of PCR-introduced errors. The constructed vector was transfected into CHO cells by using lipofectamine (GIBCO BRL). CHO cells with high expression of rat U-II receptor were selected and established as stable cell lines by using G418. CHO cells were seeded at 25,000 cells per well into 96-well, black-wall, clear-bottom microtiter plates 24 hrs before assay. Cells in culture media (DMEM/F12 containing 15 mM HEPES, L-glutamine, pyridoxine hydrochloride; 10% fetal bovine serum; 1 mg/mL G418 sulfate; antibiotic-antimycotic; pH 7.4) were loaded with proprietary dye, from the FLIPR Calcium Assay Kit (Molecular Devices), prepared in assay buffer (Hanks Balanced Salts Solution, 20 mM HEPES, 0.1% BSA, 2.5 mM probenecid, pH 7.4), and incubated for 1 hr at 37° C. Calcium mobilization determinations were performed at room temperature (23° C.).
row,SMILES,IC50
1,"CC(CNC(=O)c1ccccc1C1CCN(CCN2C(=O)COc3ccccc32)CC1)c1ccccc1 (stereo not drawn) [Cpd 28, 2-{1-[2-(3-oxo-2,3-dihydro-benzo[1,4]oxazin-4-yl)-ethyl]-piperidin-4-yl}-N-(2-phenyl-propyl)-benzamide]",9 µM
2,"O=C(NCCc1ccc(Cl)c(Cl)c1)c1ccccc1C1CCN(CCN2C(=O)COc3ccccc32)CC1 [Cpd 11, N-[2-(3,4-dichloro-phenyl)-ethyl]-2-{1-[2-(3-oxo-2,3-dihydro-benzo[1,4]oxazin-4-yl)-ethyl]-piperidin-4-yl}-benzamide]",5.4 µM
3,"O=C(NCCc1ccncc1)c1ccccc1C1CCN(CCN2C(=O)COc3ccccc32)CC1 [Cpd 45, 2-{1-[2-(3-oxo-2,3-dihydro-benzo[1,4]oxazin-4-yl)-ethyl]-piperidin-4-yl}-N-(2-pyridin-4-yl-ethyl)-benzamide]",16 µM
4,"O=C(NCc1ccncc1)c1ccccc1C1CCN(CCN2C(=O)COc3ccccc32)CC1 [Cpd 44, 2-{1-[2-(3-oxo-2,3-dihydro-benzo[1,4]oxazin-4-yl)-ethyl]-piperidin-4-yl}-N-pyridin-4-ylmethyl-benzamide]",21 µM
5,"CC(C)NC(=O)NCCCCCNC(=O)c1cc(Cl)ccc1C1CCN(CCN2C(=O)COc3ccccc32)CC1 [Cpd 80, 5-chloro-N-[5-(3-isopropyl-ureido)-pentyl]-2-{1-[2-(3-oxo-2,3-dihydro-benzo[1,4]oxazin-4-yl)-ethyl]-piperidin-4-yl}-benzamide]",0.21 µM
6,"O=C1COc2ccccc2N1CCN1CCC(C(=O)NCCCc2ccccc2)(c2ccccc2)CC1 [Cpd 107, 1-[2-(3-oxo-2,3-dihydro-benzo[1,4]oxazin-4-yl)-ethyl]-4-phenyl-piperidine-4-carboxylic acid (3-phenyl-propyl)-amide]",9.1 µM
7,"O=C1COc2ccccc2N1CCN1CCC(c2ccccc2F)CC1 [Cpd 89, 4-{2-[4-(2-fluoro-phenyl)-piperidin-1-yl]-ethyl}-4H-benzo[1,4]oxazin-3-one]",23 µM
8,"O=C(NCc1ccccc1)c1ccccc1C1CCN(CCN2C(=O)COc3ccccc32)CC1 [Cpd 2, N-benzyl-2-{1-[2-(3-oxo-2,3-dihydro-benzo[1,4]oxazin-4-yl)-ethyl]-piperidin-4-yl}-benzamide]",7.9 µM
9,"Cc1ccccc1C1CCN(CCN2C(=O)COc3ccccc32)CC1 [Cpd 91, 4-[2-(4-o-tolyl-piperidin-1-yl)-ethyl]-4H-benzo[1,4]oxazin-3-one]",21 µM
10,"O=C1COc2ccccc2N1CCN1CCC(c2ccc(Cl)cc2)CC1 [Cpd 85, 4-{2-[4-(4-chloro-phenyl)-piperidin-1-yl]-ethyl}-4H-benzo[1,4]oxazin-3-one]",18 µM
11,"COC(=O)c1cc(Cl)ccc1C1CCN(CCN2C(=O)COc3ccccc32)CC1 [Cpd 56, 5-chloro-2-{1-[2-(3-oxo-2,3-dihydro-benzo[1,4]oxazin-4-yl)-ethyl]-piperidin-4-yl}-benzoic acid methyl ester]",8 µM
12,"CN(CCc1ccccc1)C(=O)C1(c2ccccc2)CCN(CCN2C(=O)COc3ccccc32)CC1 [Cpd 106, 1-[2-(3-oxo-2,3-dihydro-benzo[1,4]oxazin-4-yl)-ethyl]-4-phenyl-piperidine-4-carboxylic acid methyl-phenethyl-amide]",14 µM
13,"O=C(NCc1cccnc1)c1ccccc1C1CCN(CCN2C(=O)COc3ccccc32)CC1 [Cpd 43, 2-{1-[2-(3-oxo-2,3-dihydro-benzo[1,4]oxazin-4-yl)-ethyl]-piperidin-4-yl}-N-pyridin-3-ylmethyl-benzamide]",18 µM
14,"O=C(NC1CCc2ccccc21)c1ccccc1C1CCN(CCN2C(=O)COc3ccccc32)CC1 (stereo not drawn) [Cpd 27, N-indan-1-yl-2-{1-[2-(3-oxo-2,3-dihydro-benzo[1,4]oxazin-4-yl)-ethyl]-piperidin-4-yl}-benzamide]",43 µM
15,"O=C(NCCN1CCCC1)c1ccccc1C1CCN(CCN2C(=O)COc3ccccc32)CC1 [Cpd 30, 2-{1-[2-(3-oxo-2,3-dihydro-benzo[1,4]oxazin-4-yl)-ethyl]-piperidin-4-yl}-N-(2-pyrrolidin-1-yl-ethyl)-benzamide]",32 µM
16,"O=C1COc2ccccc2N1CCN1CCC(c2ccccc2)CC1 [Cpd 86, 4-[2-(4-phenyl-piperidin-1-yl)-ethyl]-4H-benzo[1,4]oxazin-3-one]",24 µM
17,"CC1C=C(c2ccc(Cl)cc2C(=O)NCCCCCNC(=O)OC(C)(C)C)CC(C)N1CCN1C(=O)COc2ccccc21 (stereo not drawn) [Cpd 102, [5-(5-chloro-2-{2,6-dimethyl-1-[2-(3-oxo-2,3-dihydro-benzo[1,4]oxazin-4-yl)-ethyl]-1,2,3,6-tetrahydro-pyridin-4-yl}-benzoylamino)pentyl]-carbamic acid tert-butyl ester]",7.6 µM
18,"CN(Cc1ccccc1)C(=O)c1ccccc1C1CCN(CCN2C(=O)COc3ccccc32)CC1 [Cpd 5, N-benzyl-N-methyl-2-{1-[2-(3-oxo-2,3-dihydro-benzo[1,4]oxazin-4-yl)-ethyl]-piperidin-4-yl}-benzamide]",11 µM
19,"COCCCNC(=O)c1ccccc1C1CCN(CCN2C(=O)COc3ccccc32)CC1 [Cpd 37, N-(3-methoxy-propyl)-2-{1-[2-(3-oxo-2,3-dihydro-benzo[1,4]oxazin-4-yl)-ethyl]-piperidin-4-yl}-benzamide]",30 µM
20,"O=C(NCC1CCN(C(=O)c2ccccc2)CC1)c1cc(Cl)ccc1C1CCN(CCN2C(=O)COc3ccccc32)CC1 [Cpd 64, N-(1-benzoyl-piperidin-4-ylmethyl)-5-chloro-2-{1-[2-(3-oxo-2,3-dihydro-benzo[1,4]oxazin-4-yl)-ethyl]-piperidin-4-yl}-benzamide]",0.52 µM
21,"O=C(NCCCCCNC(=O)c1cc(Cl)ccc1C1CCN(CCN2C(=O)COc3ccccc32)CC1)Nc1ccccc1 [Cpd 81, 5-chloro-2-{1-[2-(3-oxo-2,3-dihydro-benzo[1,4]oxazin-4-yl)-ethyl]-piperidin-4-yl}-N-[5-(3-phenyl-ureido)-pentyl]-benzamide]",0.53 µM
22,"CC(CCc1ccccc1)NC(=O)c1ccccc1C1CCN(CCN2C(=O)COc3ccccc32)CC1 (stereo not drawn) [Cpd 25, N-(1-methyl-3-phenyl-propyl)-2-{1-[2-(3-oxo-2,3-dihydro-benzo[1,4]oxazin-4-yl)-ethyl]-piperidin-4-yl}-benzamide]",4 µM
23,"O=C1COc2ccccc2N1CCN1CCC(c2cccc(Cl)c2)CC1 [Cpd 92, 4-{2-[4-(3-chloro-phenyl)-piperidin-1-yl]-ethyl}-4H-benzo[1,4]oxazin-3-one]",20 µM
24,"CC(C)(C)OC(=O)NCCCCCNC(=O)c1ccccc1C1CC2CCC(C1)N2CCN1C(=O)COc2ccccc21 (stereo not drawn) [Cpd 97, [5-(2-{8-[2-(3-oxo-2,3-dihydro-benzo[1,4]oxazin-4-yl)-ethyl]-8-aza-bicyclo[3.2.1]oct-3-yl}-benzoylamino)-pentyl]-carbamic acid tert-butyl ester]",5.4 µM
25,"CN(CCc1ccccc1)C(=O)c1ccccc1C1CCN(CCN2C(=O)COc3ccccc32)CC1 [Cpd 18, N-methyl-2-{1-[2-(3-oxo-2,3-dihydro-benzo[1,4]oxazin-4-yl)-ethyl]-piperidin-4-yl}-N-phenethyl-benzamide]",15 µM
26,"COc1ccc(CCNC(=O)c2ccccc2C2CCN(CCN3C(=O)COc4ccccc43)CC2)cc1 [Cpd 14, N-[2-(4-methoxy-phenyl)-ethyl]-2-{1-[2-(3-oxo-2,3-dihydro-benzo[1,4]oxazin-4-yl)-ethyl]-piperidin-4-yl}-benzamide]",4 µM
27,"O=C(c1ccccc1C1CCN(CCN2C(=O)COc3ccccc32)CC1)N1CCc2ccccc2C1 [Cpd 53, 4-(2-{4-[2-(3,4-dihydro-1H-isoquinoline-2-carbonyl)-phenyl]-piperidin-1-yl}-ethyl)-4H-benzo[1,4]oxazin-3-one]",18 µM
28,"O=C(NCC1CC1)c1ccccc1C1CCN(CCN2C(=O)COc3ccccc32)CC1 [Cpd 24, N-cyclopropylmethyl-2-{1-[2-(3-oxo-2,3-dihydro-benzo[1,4]oxazin-4-yl)-ethyl]-piperidin-4-yl}-benzamide]",12 µM
29,"O=C(NCCc1ccc(C(F)(F)F)cc1)c1ccccc1C1CCN(CCN2C(=O)COc3ccccc32)CC1 [Cpd 40, 2-{1-[2-(3-oxo-2,3-dihydro-benzo[1,4]oxazin-4-yl)-ethyl]-piperidin-4-yl}-N-[2-(4-trifluoromethyl-phenyl)-ethyl]-benzamide]",4 µM
30,"COc1ccccc1CCNC(=O)c1ccccc1C1CCN(CCN2C(=O)COc3ccccc32)CC1 [Cpd 15, N-[2-(2-methoxy-phenyl)-ethyl]-2-{1-[2-(3-oxo-2,3-dihydro-benzo[1,4]oxazin-4-yl)-ethyl]-piperidin-4-yl}-benzamide]",8 µM
